For orientation: pKi means the negative decadic logarithm of the Ki, by convention in mol/L. Lower therefore signals a large Ki. One may read the pEC50 as −log10 of the EC50, conventionally taken in molar units. A lower pEC50 goes with a large EC50.

One test has as its target T1, Caspase-1 (Homo sapiens, UniProt P29466).
T1 sequence (P29466 whole entry): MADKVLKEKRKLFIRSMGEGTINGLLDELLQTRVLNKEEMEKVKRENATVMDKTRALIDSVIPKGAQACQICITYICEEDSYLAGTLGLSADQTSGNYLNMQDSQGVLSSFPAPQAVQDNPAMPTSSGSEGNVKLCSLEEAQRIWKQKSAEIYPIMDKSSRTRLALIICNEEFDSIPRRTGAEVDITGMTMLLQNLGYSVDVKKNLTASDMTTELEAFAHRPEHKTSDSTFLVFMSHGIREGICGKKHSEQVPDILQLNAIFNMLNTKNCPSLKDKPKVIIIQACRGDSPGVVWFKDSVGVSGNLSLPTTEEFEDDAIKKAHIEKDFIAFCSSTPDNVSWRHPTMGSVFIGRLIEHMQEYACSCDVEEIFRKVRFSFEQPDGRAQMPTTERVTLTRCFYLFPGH
The test is described as follows: Inhibitory activity against human Caspase 1.

Another test relates to PBMC. The test is described as follows: Inhibition of IL1-beta production in PBMC. The format is functional, cell-based. The note with it: Homo sapiens.

Structures are written as SMILES. pEC50, pKi: −log10 of the molar value. Residues, ends and D or L forms follow the SMILES beside them. *: point of attachment. Cbz = O=C(OCc1ccccc1)*

At Caspase-1, `CC(C)[C@H](NC(=O)[C@H](Cc1ccc(O)cc1)NC(=O)OCc1ccccc1)C(=O)N[C@@H](C)C(=O)N[C@H](C=O)CC(=O)O` gave a pKi of 6.74. Further, the pEC50 in the test on PBMC was 5.41.

For `O=C[C@H](CC(=O)O)NC(=O)c1cc(NC(=O)c2ccc(Nc3cnc4ccccc4n3)cc2)cs1`, the pKi at Caspase-1 is 6.59. `O=C[C@H](CC(=O)O)NC(=O)CCCCCNC(=O)c1ccc(Oc2cnc3ccccc3n2)cc1` had a pKi at Caspase-1 of 5.62. The pEC50 in the test with PBMC is 4.57. With `O=C[C@H](CC(=O)O)NC(=O)C(CCCCNC(=O)c1ccc(Nc2cncc(Cl)n2)cc1)c1cccs1` (some centres not stated), the pKi on Caspase-1 was 7.27. As to `O=C[C@H](CC(=O)O)NC(=O)CCCCCC(=O)Nc1ccc(Nc2cnc3ccccc3n2)cc1`, at Caspase-1, the pKi was 5.68. Compared with the last compound, the pKi is 1.59 log units lower. Still for that read-out and setting: with `O=C[C@H](CC(=O)O)NC(=O)CCCCNC(=O)c1ccc(Nc2cnc3ccccc3n2)cc1` the figure was 5.55; with `O=C[C@H](CC(=O)O)NC(=O)c1ccc(CNC(=O)c2ccc(Nc3cnc4ccccc4n3)cc2)cc1`, 7.00. Compound `Cc1cc(C(=O)NCCCCC(C(=O)N[C@H](C=O)CC(=O)O)c2cccs2)ccc1Nc1cnc2ccccc2n1` (some centres not stated) had a pKi at Caspase-1 of 8.40. Further, the pEC50 in the test with PBMC is 5.11. As to `O=C[C@H](CC(=O)O)NC(=O)CCCNC(=O)c1ccc(Nc2cnc3ccccc3n2)cc1`, on Caspase-1, the pKi is 5.28. `O=C[C@H](CC(=O)O)NC(=O)C(CCCCNC(=O)c1ccc(Oc2cnc3ccccc3n2)cc1)c1cccs1` (some centres not stated) had a pEC50 in the test on PBMC of 4.91. At Caspase-1, `O=C[C@H](CC(=O)O)NC(=O)C(CCCCNC(=O)c1ccc(Nc2cnc3ccccc3n2)cc1)c1cccs1` (some centres not stated) showed a pKi of 8.15. In the test on PBMC, this compound had a pEC50 of 4.69. Take `O=C[C@H](CC(=O)O)NC(=O)C(CCCCNC(=O)c1ccc(Nc2cnc3ccccc3n2)cc1)c1ccccc1F` (some centres not stated): the pKi at Caspase-1 was 8.10. In the case of `CC(C)[C@H](NC(=O)c1ccc(Nc2cnc3ccccc3n2)cc1)C(=O)N[C@@H](C)C(=O)N[C@H](C=O)CC(=O)O`, the pKi on Caspase-1 was 8.40. Compared with the last compound, the pKi is 0.30 log units higher. On the same count and under the same terms, in the case of `O=C[C@H](CC(=O)O)NC(=O)c1ccc(CNC(=O)c2ccc(Nc3cnc4ccccc4n3)cc2)s1` it was 7.46. As to `O=C[C@H](CC(=O)O)NC(=O)c1ccc(CNC(=O)c2ccc(Nc3cnc4ccccc4n3)cc2)nc1`, the pKi on Caspase-1 was 8.30. On Caspase-1, `O=C[C@H](CC(=O)O)NC(=O)Cc1ccc(CNC(=O)c2ccc(Nc3cnc4ccccc4n3)cc2)s1` gave a pKi of 6.92. This pKi lies 1.38 log units lower than the previous one. `O=C[C@H](CC(=O)O)NC(=O)c1cnc(CNC(=O)c2ccc(Nc3cnc4ccccc4n3)cc2)cn1`: the pKi on Caspase-1 is 6.00.

For the compound `Cc1cc(C(=O)NCCCCCC(=O)N[C@H](C=O)CC(=O)O)ccc1Nc1cnc2ccccc2n1`, at Caspase-1, the pKi is 6.49. Besides, in the test on PBMC, the pEC50 was 5.11. On to `CCC(CCCCNC(=O)c1ccc(Nc2cnc3ccccc3n2)cc1)C(=O)N[C@H](C=O)CC(=O)O` (some centres not stated), for which the pKi at Caspase-1 was 7.80. At Caspase-1, `O=C[C@H](CC(=O)O)NC(=O)CCCCCCNC(=O)c1ccc(Nc2cnc3ccccc3n2)cc1` gave a pKi of 5.59.

In turn, `O=C[C@H](CC(=O)O)NC(=O)[C@H]1CC[C@H](CNC(=O)c2ccc(Nc3cnc4ccccc4n3)cc2)CC1` showed a pKi on Caspase-1 of 5.71. In turn, `O=C[C@H](CC(=O)O)NC(=O)c1csc(CNC(=O)c2ccc(Nc3cnc4ccccc4n3)cc2)c1` gave a pKi at Caspase-1 of 6.92. Against the preceding compound, the pKi is 1.21 log units higher. At Caspase-1, `Cc1ccc2nc(Nc3ccc(C(=O)NCCCCC(C(=O)N[C@H](C=O)CC(=O)O)c4cccs4)cc3)cnc2c1` (some centres not stated) gave a negative-log Ki (pKi) of 8.30. With `O=C[C@H](CC(=O)O)NC(=O)CCCCCNC(=O)c1ccc(Nc2cnc3ccccc3n2)cc1`, on Caspase-1, the pKi is 6.72. Further, the pEC50 in the test on PBMC was 5.38. The compound `O=C[C@H](CC(=O)O)NC(=O)c1ccc(CNC(=O)c2ccc(Nc3cnc4ccccc4n3)cc2)o1` had a pKi on Caspase-1 of 5.68. `O=C[C@H](CC(=O)O)NC(=O)CCCCCNC(=O)c1ccc(Nc2cnccn2)cc1` had a pKi on Caspase-1 of 4.43. The same compound had a pEC50 with PBMC of less than 3.70. On Caspase-1, `O=C[C@H](CC(=O)O)NC(=O)C(CCCCNC(=O)c1ccc(Nc2cnccn2)cc1)c1cccs1` (some centres not stated) gave a pKi of 7.00. In the test on PBMC, this compound gave a pEC50 of 4.70.

As to `O=C[C@H](CC(=O)O)NC(=O)C(CCCCNC(=O)c1ccc(Nc2cnc3ccccc3n2)cc1)c1ccccc1` (some centres not stated), the pKi on Caspase-1 was 8.30. Consider `CC(C)[C@H](NC(=O)OCc1ccccc1)C(=O)N[C@@H](C)C(=O)N[C@H](C=O)CC(=O)O` (Cbz-Val-Ala-Asp-aldehyde), for which the pKi at Caspase-1 is 8.10. This pKi lies 0.20 log units lower than the previous one.

The values above are taken from ChEMBL document CHEMBL1149400, “Tethering identifies fragment that yields potent inhibitors of human caspase-1” (Bioorg Med Chem Lett, 2006).
